Experimental data: patent US7074789B2, “Kinase inhibitors” (Amgen Inc., priority 1999, dated 2006)
Several values for one entry are separate records, joined by “and”; a condition that tells them apart may be missing. Identical values can stand only once.

Tests used:
Type in all cases: biochemical
c-Met = target: T1, c-Met (Homo sapiens, UniProt P08581); assay: Kinase inhibition assay (33P transfer), c-Met; conditions: Table 2, kinase inhibition class; read-out: Met-1
T1 construct: Kinases are expressed as either kinase domains or full length constructs; made in house
T1 sequence (P08581 25-1390): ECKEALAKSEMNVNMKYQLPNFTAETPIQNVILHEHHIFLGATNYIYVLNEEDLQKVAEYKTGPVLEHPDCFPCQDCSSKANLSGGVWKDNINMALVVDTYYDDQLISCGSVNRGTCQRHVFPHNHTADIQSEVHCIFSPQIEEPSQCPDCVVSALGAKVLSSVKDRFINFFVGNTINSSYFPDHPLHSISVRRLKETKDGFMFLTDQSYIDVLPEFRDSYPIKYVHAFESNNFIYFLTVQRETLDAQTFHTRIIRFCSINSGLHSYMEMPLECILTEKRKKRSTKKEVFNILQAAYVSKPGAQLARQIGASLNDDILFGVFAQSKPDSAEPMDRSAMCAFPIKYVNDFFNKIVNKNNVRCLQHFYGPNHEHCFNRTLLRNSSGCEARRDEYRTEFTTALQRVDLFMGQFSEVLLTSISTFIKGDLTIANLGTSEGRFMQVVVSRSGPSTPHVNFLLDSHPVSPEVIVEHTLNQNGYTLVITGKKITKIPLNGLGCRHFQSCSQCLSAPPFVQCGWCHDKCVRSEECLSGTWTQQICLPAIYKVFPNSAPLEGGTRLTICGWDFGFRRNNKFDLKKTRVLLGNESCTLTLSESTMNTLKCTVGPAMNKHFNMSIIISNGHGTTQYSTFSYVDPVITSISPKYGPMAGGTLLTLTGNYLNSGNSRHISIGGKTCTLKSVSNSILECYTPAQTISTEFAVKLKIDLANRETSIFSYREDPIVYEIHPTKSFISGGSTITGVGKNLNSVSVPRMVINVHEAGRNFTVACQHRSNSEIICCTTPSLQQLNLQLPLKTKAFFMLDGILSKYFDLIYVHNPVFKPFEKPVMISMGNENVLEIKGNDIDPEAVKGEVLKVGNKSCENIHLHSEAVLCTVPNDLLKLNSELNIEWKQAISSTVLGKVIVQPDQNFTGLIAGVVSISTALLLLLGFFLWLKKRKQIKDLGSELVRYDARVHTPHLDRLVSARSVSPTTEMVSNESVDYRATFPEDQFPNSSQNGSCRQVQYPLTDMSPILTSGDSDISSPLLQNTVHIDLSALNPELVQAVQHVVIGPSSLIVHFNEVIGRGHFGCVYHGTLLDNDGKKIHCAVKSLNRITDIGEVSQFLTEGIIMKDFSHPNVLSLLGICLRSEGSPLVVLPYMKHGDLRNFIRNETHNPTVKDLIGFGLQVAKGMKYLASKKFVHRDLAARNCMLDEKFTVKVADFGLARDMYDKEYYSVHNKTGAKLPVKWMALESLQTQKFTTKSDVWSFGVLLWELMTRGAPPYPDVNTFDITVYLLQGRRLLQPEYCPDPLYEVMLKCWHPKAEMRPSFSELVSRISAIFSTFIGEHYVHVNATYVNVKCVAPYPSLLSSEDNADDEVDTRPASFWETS
Summary of the method: (§1)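 Read-out: scintillation counts of 33P moved from ATP onto synthetic peptide polymer coated on the well surface, after washing with 0.5% phosphoric acid. Enzymes were tagged (GST or polyHistidine) and came from bacterial or insect-cell expression. IC50 marks 50% loss of incorporated label.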

PDGFRB = target: T2, PDGFRB (Homo sapiens, UniProt P09619); assay: Kinase inhibition assay (33P transfer), PDGFRB; conditions: read-out: PDGFRB-1
T2 construct: Kinases are expressed as either kinase domains or full length constructs; made in house
T2 sequence (P09619 33-1106, species assumed): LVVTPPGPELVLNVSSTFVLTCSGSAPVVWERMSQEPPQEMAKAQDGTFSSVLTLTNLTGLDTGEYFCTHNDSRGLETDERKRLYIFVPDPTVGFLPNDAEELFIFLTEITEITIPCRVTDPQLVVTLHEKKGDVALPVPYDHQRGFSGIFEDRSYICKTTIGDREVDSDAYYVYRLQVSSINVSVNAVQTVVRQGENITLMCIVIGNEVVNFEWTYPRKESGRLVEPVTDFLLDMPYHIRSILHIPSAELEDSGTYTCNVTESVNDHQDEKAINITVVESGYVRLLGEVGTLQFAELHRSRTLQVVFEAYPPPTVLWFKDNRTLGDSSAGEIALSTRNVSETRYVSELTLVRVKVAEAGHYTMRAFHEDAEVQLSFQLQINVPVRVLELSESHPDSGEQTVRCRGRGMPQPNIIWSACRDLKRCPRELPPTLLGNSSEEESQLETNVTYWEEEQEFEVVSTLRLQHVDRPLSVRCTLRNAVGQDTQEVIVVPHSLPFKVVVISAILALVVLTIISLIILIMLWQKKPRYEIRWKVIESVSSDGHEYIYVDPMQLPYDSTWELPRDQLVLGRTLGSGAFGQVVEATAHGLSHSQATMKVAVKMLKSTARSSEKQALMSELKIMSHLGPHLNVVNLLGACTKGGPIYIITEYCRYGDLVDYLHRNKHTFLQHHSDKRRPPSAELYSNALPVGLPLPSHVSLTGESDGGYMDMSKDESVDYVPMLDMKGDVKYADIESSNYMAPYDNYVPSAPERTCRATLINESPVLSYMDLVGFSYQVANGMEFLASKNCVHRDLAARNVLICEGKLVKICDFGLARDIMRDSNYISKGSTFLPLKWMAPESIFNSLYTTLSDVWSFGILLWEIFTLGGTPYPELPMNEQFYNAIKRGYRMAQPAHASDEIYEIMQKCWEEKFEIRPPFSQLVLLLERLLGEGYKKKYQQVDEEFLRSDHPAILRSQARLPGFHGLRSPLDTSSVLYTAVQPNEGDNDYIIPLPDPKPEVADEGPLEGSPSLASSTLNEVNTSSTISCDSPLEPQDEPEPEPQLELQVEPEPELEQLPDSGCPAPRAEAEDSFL

IGFR-1 = target: T3, IGFR-1 (Homo sapiens, UniProt P08069); assay: Kinase inhibition assay, IGFR-1 (Table 2); conditions: Table 2, kinase inhibition class
T3 construct: Kinases are expressed as either kinase domains or full length constructs; made in house
T3 sequence (P08069 31-1367): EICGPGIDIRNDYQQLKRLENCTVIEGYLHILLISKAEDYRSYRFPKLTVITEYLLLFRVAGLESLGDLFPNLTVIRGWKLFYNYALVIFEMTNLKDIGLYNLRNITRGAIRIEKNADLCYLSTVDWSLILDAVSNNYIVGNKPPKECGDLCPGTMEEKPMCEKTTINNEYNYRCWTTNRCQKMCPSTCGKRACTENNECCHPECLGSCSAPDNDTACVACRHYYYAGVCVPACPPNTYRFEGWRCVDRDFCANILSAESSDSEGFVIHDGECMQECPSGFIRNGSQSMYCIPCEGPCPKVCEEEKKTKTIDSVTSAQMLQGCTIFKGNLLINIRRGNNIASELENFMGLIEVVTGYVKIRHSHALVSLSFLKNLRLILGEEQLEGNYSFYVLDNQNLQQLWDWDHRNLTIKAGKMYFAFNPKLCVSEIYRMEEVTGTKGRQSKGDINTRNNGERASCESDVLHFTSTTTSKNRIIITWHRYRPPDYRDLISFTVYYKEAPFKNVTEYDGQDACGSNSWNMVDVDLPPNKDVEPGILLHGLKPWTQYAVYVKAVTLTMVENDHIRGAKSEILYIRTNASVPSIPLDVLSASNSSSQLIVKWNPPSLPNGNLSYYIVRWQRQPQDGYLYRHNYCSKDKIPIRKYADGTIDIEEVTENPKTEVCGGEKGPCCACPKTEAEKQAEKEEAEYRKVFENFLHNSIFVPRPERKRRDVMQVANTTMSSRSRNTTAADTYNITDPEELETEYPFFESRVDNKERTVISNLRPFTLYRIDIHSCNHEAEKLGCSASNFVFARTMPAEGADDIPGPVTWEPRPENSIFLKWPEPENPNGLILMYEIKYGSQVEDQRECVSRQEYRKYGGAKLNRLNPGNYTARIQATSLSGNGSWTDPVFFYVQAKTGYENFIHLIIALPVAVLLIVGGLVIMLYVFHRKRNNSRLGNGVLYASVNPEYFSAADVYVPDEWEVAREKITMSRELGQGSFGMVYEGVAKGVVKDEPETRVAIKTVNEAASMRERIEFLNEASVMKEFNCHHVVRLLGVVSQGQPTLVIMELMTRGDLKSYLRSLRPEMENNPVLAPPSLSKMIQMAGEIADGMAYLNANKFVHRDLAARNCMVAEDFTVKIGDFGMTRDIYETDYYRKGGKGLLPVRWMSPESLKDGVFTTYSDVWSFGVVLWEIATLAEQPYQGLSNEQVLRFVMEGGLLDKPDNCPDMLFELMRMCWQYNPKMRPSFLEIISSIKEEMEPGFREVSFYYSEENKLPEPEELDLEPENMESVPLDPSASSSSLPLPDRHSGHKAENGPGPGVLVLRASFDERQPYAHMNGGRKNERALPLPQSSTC

Itk = target: T4, Itk (Homo sapiens, UniProt Q08881); assay: Kinase inhibition assay (33P transfer), Itk; conditions: read-out: Itk-1
T4 construct: Kinases are expressed as either kinase domains or full length constructs; made in house
T4 sequence (Q08881 1-620): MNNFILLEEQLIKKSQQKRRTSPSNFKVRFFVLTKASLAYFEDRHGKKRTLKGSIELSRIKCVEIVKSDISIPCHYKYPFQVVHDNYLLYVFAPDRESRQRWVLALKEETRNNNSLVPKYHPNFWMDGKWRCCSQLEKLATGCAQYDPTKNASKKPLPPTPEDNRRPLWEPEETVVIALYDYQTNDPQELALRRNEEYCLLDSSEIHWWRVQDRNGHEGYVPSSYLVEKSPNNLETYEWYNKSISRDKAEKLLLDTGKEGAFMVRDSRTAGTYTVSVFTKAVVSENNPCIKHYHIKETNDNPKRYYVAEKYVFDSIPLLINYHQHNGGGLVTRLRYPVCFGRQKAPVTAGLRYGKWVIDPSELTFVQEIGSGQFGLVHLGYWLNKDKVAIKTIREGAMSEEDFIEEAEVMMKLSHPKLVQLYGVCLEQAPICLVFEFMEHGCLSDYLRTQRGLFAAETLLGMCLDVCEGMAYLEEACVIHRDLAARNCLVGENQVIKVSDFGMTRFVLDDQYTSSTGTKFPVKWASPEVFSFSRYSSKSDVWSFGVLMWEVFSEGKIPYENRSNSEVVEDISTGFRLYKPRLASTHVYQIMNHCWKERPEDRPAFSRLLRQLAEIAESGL
Summary of the method: as §1

AKT = target: T5, AKT (Homo sapiens, UniProt Q9Y243); assay: Kinase inhibition assay (33P transfer), AKT; conditions: Table 2, kinase inhibition class; read-out: AKT3-1
T5 construct: Kinases are expressed as either kinase domains or full length constructs; made in house
T5 sequence (Q9Y243 whole entry, the tested form may be a part): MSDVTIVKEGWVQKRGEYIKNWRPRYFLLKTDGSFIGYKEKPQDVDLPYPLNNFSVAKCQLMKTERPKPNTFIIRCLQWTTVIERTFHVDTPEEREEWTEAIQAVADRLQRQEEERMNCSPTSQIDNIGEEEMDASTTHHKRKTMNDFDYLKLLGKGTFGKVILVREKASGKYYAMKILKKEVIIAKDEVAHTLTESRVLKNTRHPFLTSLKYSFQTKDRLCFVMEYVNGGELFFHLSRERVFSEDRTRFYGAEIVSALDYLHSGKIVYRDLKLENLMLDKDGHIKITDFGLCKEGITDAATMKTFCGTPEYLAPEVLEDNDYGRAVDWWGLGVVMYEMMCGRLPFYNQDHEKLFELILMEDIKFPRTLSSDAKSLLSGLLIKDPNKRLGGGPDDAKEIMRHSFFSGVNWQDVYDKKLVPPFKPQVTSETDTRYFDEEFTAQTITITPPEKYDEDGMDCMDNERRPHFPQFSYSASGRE
Summary of the method: (§2)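 Kinase domain or full-length constructs, GST- or polyHis-tagged, expressed in E. coli or baculovirus-High Five cells, sometimes with regulatory polypeptides. Activity measured as 33PO4 transfer from ATP to plate-bound poly(Glu,Tyr) 4:1 or poly(Arg,Ser) 3:1; after incubation, plates washed with 0.5% phosphoric acid and counted by liquid scintillation.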

ErbB2 = target: T6, ErbB2 (Homo sapiens, UniProt P04626); assay: Kinase inhibition assay (33P transfer), ErbB2; conditions: read-out: ErbB2-2
T6 construct: Kinases are expressed as either kinase domains or full length constructs; made in house
Summary of the method: as §1

Lck = target: T7, Lck (Homo sapiens, UniProt P06239); assay: Kinase inhibition assay (33P transfer), Lck; conditions: read-out: Lck-1
T7 construct: Kinases are expressed as either kinase domains or full length constructs; made in house
T7 sequence (P06239 whole entry, species assumed, the tested form may be a part): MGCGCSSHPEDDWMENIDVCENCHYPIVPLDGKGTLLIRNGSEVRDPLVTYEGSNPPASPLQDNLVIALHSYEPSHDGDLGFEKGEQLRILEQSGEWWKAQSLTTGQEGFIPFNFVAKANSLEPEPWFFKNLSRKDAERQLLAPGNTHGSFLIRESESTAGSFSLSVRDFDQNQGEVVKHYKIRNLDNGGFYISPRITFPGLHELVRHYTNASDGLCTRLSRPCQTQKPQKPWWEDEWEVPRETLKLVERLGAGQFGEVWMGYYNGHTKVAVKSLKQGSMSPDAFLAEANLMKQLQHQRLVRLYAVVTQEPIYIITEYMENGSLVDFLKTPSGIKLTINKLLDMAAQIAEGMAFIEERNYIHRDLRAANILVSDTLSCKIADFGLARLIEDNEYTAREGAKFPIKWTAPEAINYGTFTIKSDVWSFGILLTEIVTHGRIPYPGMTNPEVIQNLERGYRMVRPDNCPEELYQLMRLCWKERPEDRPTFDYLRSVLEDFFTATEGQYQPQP
Summary of the method: as §2

EGFR = target: T8, EGFR (Homo sapiens, UniProt P00533); assay: Kinase inhibition assay (33P transfer), EGFR; conditions: Table 2, kinase inhibition class; read-out: EGFR-1
T8 construct: Kinases are expressed as either kinase domains or full length constructs; made in house
Summary of the method: as §1

Kdr = target: T9, Kdr (Homo sapiens, UniProt P35968); assay: Kinase inhibition assay (33P transfer), Kdr; conditions: read-out: KDR-1
T9 construct: Kinases are expressed as either kinase domains or full length constructs; made in house
Summary of the method: as §2

Zap-70 = target: T10, Zap-70 (Homo sapiens, UniProt P43403); assay: Kinase inhibition assay (33P transfer), Zap-70; conditions: read-out: Zap-1
T10 construct: Kinases are expressed as either kinase domains or full length constructs; made in house
T10 sequence (P43403 1-619): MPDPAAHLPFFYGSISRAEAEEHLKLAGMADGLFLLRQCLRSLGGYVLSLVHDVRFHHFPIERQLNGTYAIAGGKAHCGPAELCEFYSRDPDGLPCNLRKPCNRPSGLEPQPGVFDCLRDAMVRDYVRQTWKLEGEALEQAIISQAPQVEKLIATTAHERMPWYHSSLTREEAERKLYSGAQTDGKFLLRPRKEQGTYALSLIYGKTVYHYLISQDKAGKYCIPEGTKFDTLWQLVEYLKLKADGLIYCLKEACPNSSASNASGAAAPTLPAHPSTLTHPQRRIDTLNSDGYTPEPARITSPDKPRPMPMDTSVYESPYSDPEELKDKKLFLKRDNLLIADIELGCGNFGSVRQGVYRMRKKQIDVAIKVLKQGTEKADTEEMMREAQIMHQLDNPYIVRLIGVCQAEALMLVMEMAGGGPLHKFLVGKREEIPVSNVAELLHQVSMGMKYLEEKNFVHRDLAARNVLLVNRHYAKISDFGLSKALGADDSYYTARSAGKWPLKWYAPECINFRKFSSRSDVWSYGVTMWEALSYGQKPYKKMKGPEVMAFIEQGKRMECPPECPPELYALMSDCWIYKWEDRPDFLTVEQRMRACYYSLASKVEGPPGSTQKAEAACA
Summary of the method: as §2

| IC50 (c-Met) | IC50 (PDGFRB) | IC50 (IGFR-1) | IC50 (Itk) | IC50 (AKT) | IC50 (ErbB2) | IC50 (Lck) | IC50 (EGFR) | IC50 (Kdr) | IC50 (Zap-70) | Structure (SMILES) |
| --- | --- | --- | --- | --- | --- | --- | --- | --- | --- | --- |
| > 9.62 µM | > 9.62 µM | 7.49 to 9.62 µM | > 9.62 µM | > 9.62 µM | > 9.62 µM | > 9.62 µM | 7.49 to 9.62 µM | > 9.62 µM | 7.49 to 9.62 µM | COc1ccc(CNc2ncnc(Nc3ccc4c(cnn4Cc4ccccc4)c3)n2)cc1OC [Compound 732] |
| > 13.2 µM | 7.02 to 10.2 µM | > 13.2 µM | > 13.2 µM | > 13.2 µM | 1.17 to 7.02 µM | 7.02 to 10.2 µM | < 1.17 µM | > 13.2 µM | > 13.2 µM | COc1cccc(Nc2ncnc(N(C)c3cccc(Cl)c3)n2)c1 [Compound 741] |
| > 11.6 µM | > 11.6 µM | > 11.6 µM | > 11.6 µM | > 11.6 µM | > 11.6 µM | > 11.6 µM | 1.03 to 6.18 µM | > 11.6 µM | > 11.6 µM | CN(C)CCNc1ncnc(Nc2ccc3c(cnn3Cc3ccccc3)c2)n1 [Compound 733] |
| > 12.8 µM | 1.14 to 6.83 µM | > 12.8 µM | > 12.8 µM | > 12.8 µM | 1.14 to 6.83 µM | 6.83 to 9.96 µM | < 1.14 µM | < 1.14 µM | > 12.8 µM | Cc1ccc(Nc2ncnc(Nc3cccc(CC(=O)O)c3)n2)cc1O [Compound 543] |
| > 8.78 µM | 0.78 to 4.68 µM | 4.68 to 6.83 µM | 4.68 to 6.83 µM | > 8.78 µM | 0.78 to 4.68 µM | < 0.78 µM | > 8.78 µM | < 0.78 µM | > 8.78 µM | COc1cc(Nc2ncnc(-n3c(Nc4ccc(N(C)C)cc4)nc4ccccc43)n2)cc(OC)c1OC [Compound 1051] |
| 4.34 to 6.32 µM | 0.723 to 4.34 µM | > 8.13 µM | > 8.13 µM | > 8.13 µM | 4.34 to 6.32 µM | > 8.13 µM | 4.34 to 6.32 µM | 0.723 to 4.34 µM | > 8.13 µM | COc1cc(Nc2ncnc(-n3c(Nc4ccc(OC(F)(F)F)cc4)nc4ccccc43)n2)cc(OC)c1OC [Compound 1050] |
| < 0.999 µM | < 0.999 µM | > 11.2 µM | > 11.2 µM | > 11.2 µM | > 11.2 µM | > 11.2 µM | < 0.999 µM | > 11.2 µM | > 11.2 µM | CC(=O)N1CCc2cc(Nc3ncnc(N4CCCc5cc(C)ccc54)n3)ccc21 [Compound 764] |
| > 9.95 µM | 0.884 to 5.3 µM | > 9.95 µM | > 9.95 µM | > 9.95 µM | > 9.95 µM | > 9.95 µM | > 9.95 µM | < 0.884 µM | > 9.95 µM | O=C(O)Cc1cccc(Nc2ncnc(-n3c(NCc4ccccn4)nc4ccccc43)n2)c1 [Compound 533] |
| > 11.3 µM | > 11.3 µM | > 11.3 µM | > 11.3 µM | > 11.3 µM | > 11.3 µM | > 11.3 µM | 1.01 to 6.03 µM | > 11.3 µM | > 11.3 µM | CN(c1cccc(Cl)c1)c1ncnc(Nc2ccc(F)c(C(F)(F)F)c2)n1 [Compound 742] |
| 0.919 to 5.51 µM | 0.919 to 5.51 µM | 0.919 to 5.51 µM | 0.919 to 5.51 µM | 5.51 to 8.04 µM | 0.919 to 5.51 µM | 5.51 to 8.04 µM | < 0.919 µM | 0.919 to 5.51 µM | 0.919 to 5.51 µM | CC(=O)c1ccc(Nc2ncnc(Nc3ccc4c(cnn4Cc4ccccc4)c3)n2)cc1 [Compound 730] |
| 7.34 to 9.44 µM | > 9.44 µM | 7.34 to 9.44 µM | 7.34 to 9.44 µM | 5.04 to 7.34 µM | 0.839 to 5.04 µM | > 9.44 µM | < 0.839 µM | 0.839 to 5.04 µM | 5.04 to 7.34 µM | c1ccc(Cn2ncc3cc(Nc4ncnc(Nc5ccc(N6CCCCC6)cc5)n4)ccc32)cc1 [Compound 735] |
| > 9.67 µM | > 9.67 µM | > 9.67 µM | > 9.67 µM | > 9.67 µM | > 9.67 µM | > 9.67 µM | > 9.67 µM | > 9.67 µM | > 9.67 µM | COc1cc(Nc2ncnc(Nc3cccc(CN4CCN(C)CC4)c3)n2)cc(OC)c1OC [Compound 1047] |
| 0.879 to 5.28 µM | 0.879 to 5.28 µM | 7.69 to 9.89 µM | > 9.89 µM | > 9.89 µM | 0.879 to 5.28 µM | 0.879 to 5.28 µM | < 0.879 µM | 0.879 to 5.28 µM | > 9.89 µM | CN(c1cccc(Cl)c1)c1ncnc(Nc2cccc(CNC(=O)O[C@@H]3CCOC3)c2)n1 [Compound 721] |
| > 13.5 µM | > 13.5 µM | > 13.5 µM | 10.5 to 13.5 µM | > 13.5 µM | > 13.5 µM | > 13.5 µM | > 13.5 µM | > 13.5 µM | > 13.5 µM | Cc1ccc2c(c1)CCCN2c1ncnc(NCc2cccnc2)n1 [Compound 777] |
| > 13 µM | > 13 µM | > 13 µM | > 13 µM | > 13 µM | > 13 µM | > 13 µM | > 13 µM | > 13 µM | > 13 µM | COc1ccc(Nc2ncnc(NCCCOC(C)C)n2)cc1OC [Compound 785] |
| > 9.67 µM | < 0.859 µM | > 9.67 µM | > 9.67 µM | > 9.67 µM | 7.52 to 9.67 µM | 0.859 to 5.16 µM | 0.859 to 5.16 µM | < 0.859 µM | > 9.67 µM | COC(=O)Cc1cccc(Nc2ncnc(-n3c(NCc4ccccc4)nc4ccccc43)n2)c1 [Compound 545] |
| 1.07 to 6.43 µM | 6.43 to 9.37 µM | > 12.1 µM | > 12.1 µM | > 12.1 µM | 1.07 to 6.43 µM | 6.43 to 9.37 µM | < 1.07 µM | 1.07 to 6.43 µM | > 12.1 µM | Cc1ccc2c(c1)CCCN2c1ncnc(Nc2ccc3c(c2)C(=O)OC3)n1 [Compound 763] |
| 7.39 to 9.5 µM | < 0.845 µM | 7.39 to 9.5 µM | > 9.5 µM | > 9.5 µM | > 9.5 µM | < 0.845 µM | > 9.5 µM | < 0.845 µM | > 9.5 µM | COc1cc(Nc2ncnc(-c3cccnc3Nc3cccc(C(N)=O)c3)n2)cc(OC)c1OC [Compound 1090] |
| 6.84 to 8.8 µM | > 8.8 µM | > 8.8 µM | > 8.8 µM | > 8.8 µM | 4.69 to 6.84 µM and 0.782 to 4.69 µM | 0.782 to 4.69 µM | 4.69 to 6.84 µM | 0.782 to 4.69 µM | > 8.8 µM | COc1cc(Nc2ncnc(-n3c(NCc4ccc(C)cc4C)nc4ccccc43)n2)cc(OC)c1OC [Compound 584] |
| > 12.4 µM | 9.62 to 12.4 µM | < 1.1 µM | 1.1 to 6.6 µM | > 12.4 µM | > 12.4 µM | > 12.4 µM | < 1.1 µM | > 12.4 µM | > 12.4 µM | Clc1cccc(Nc2ncnc(Nc3cc(-c4ccccc4)n[nH]3)n2)c1 [Compound 1009] |
